Common to all, as to type: cell-based
One assay concerns the target T1, CCL22 (Homo sapiens, UniProt O00626).
T1 construct: codes for the mature CCL17 or CCL22 with an N-terminal thioredoxin-hexahistidin (TRX- (His)6) tag; thioredoxin (TRX) (N, cleaved yes); (His)6 (N, cleaved yes); made in house; host or cells: E. coli BL21 (DE3)
T1 sequence (O00626 25-93): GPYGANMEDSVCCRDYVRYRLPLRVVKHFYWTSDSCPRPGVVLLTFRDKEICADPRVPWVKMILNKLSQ
The assay can be described thus: Scratch wound assay, CCL22-mediated HaCat cell migration. The note with it: HaCat cells, 72 h, read-out: inhibition of CCL22-mediated wound closure. How it is done:
soluble formazan dye which can be detected by absorbance at 420-480nm. HUT78 T cells (or HaCat cells) were seeded on 24-well plates (200,000 cells per well) and were incubated […]
concentration ≤1% on cells). The background control was reserved as one well containing the culture medium only. The plates were incubated for 72h at 37°C. Three days later, the medium containing the neutraligands was removed, and WST-1 reagent (1:10 final dilution) (Ozyme) was added to each well for a 2h incubation at 37°C as the manufacturer’s recommendation. The plates were shaken and absorbance was measured at 450nm (reference wavelength 690nm) against the background control, using a multiwell plate reader (EnVision, Perkin Elmer). Assays were performed as three independent replicates.
In vitro cell migration assay (scratch wound test) […]
the wound closure was determined as the difference between wound width at times 0 and 72h. […]
doses). After 24h, cytotoxicity was evaluated in the wells using the Alamar Blue method. […]
before AA treatment. The activity of COX2 was determined by measuring PGE2 (Cayman) in the supernatants by EIA. […]

Another assay deals with T2, mouse CCL22 (Mus musculus, UniProt O88430).
T2 construct: purchased R&D systems
T2 sequence (O88430 25-92): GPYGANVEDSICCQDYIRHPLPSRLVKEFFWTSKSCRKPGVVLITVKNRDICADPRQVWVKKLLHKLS
The assay is described as follows: Calcium responses induced by mouse CCL22, neutraligand protocol, CCR4+Gqi5+ HEK cells. The note with it: 5 nM mouse CCL22 preincubated 1 h with compound; read-out: IC50, inhibition of mouse CCL22-evoked calcium responses. The protocol:
Dye loaded cells were placed in the FlexStation 3 (Molecular Devices). Calcium mobilization was measured at 401 and 475 nm emission fluorescence after excitation at 355 nm. For the primary screening, the ligands (50μl of chemokine mixed with DMSO or test compounds) were added to the cells at 40 s, followed by digitonin addition (50μl) at 100 s to the cells. Molecules were screened at a final concentration of 2μg/ml with 5 nM CCL17 or CCL22. […] Raw fluorescence data (at 401 and 475 nm) were exported and the ratio 401/475 was calculated. The calcium response values (height of peak response over baseline) were determined. Hits were selected by comparing the response amplitude at the time of the chemokine addition ± test compound. The Z’ factor[29] was calculated according to the following equation: Z’ = 1-(3SD+ + 3SD−)/|Ave+ − Ave−|, where SD+ and Ave+ are respectively the standard deviation and the mean value of the positive controls (chemokine + DMSO), while SD− and Ave− are respectively the standard deviation and the mean value of the negative controls (HEPES-BSA (0.1%) mixed with DMSO, or cells mixed with C-021). Hit molecules were confirmed by performing concentration-response curves and their half maximal inhibitory concentration (IC50) values were calculated using the Kaleidagraph software. […]
neutraligand. Human (○) or mouse (●) CCL17 (5nM) was preincubated with increasing […]

The next assay addresses T3, COX2 (Homo sapiens, UniProt P35354).
T3 construct: endogenous in cells; host or cells: primary human monocytes treated with LPS
The assay can be described thus: COX2 mediated PGE2 release in LPS-treated primary monocytes. The note with it: 100 µM, monocytes + LPS + arachidonic acid. The protocol:
the wound closure was determined as the difference between wound width at times 0 and 72h. This experiment was repeated three times.
Human primary monocytes were isolated from buffy coats of healthy human blood donors and seeded in 24-well plates (500,000 cells/ml in 1ml) for COX-1/2 activity or 96-well plates for cell viability experiments.
Cells were seeded in 96 well plates (5,000 cells/well in 200µl) for cytotoxicity testing (Alamar […]
doses). After 24h, cytotoxicity was evaluated in the wells using the Alamar Blue method. NaF (250µg/ml) was used as a control in this experiment.
Cyclooxygenase (COX) activity
COX1 mediated prostaglandin E2 (PGE2) release. Monocytes were treated with arachidonic […]
were then collected for the determination of PGE2 by enzyme immunoassay (EIA) […]
COX2 mediated prostaglandin E2 (PGE2) release. Monocytes were incubated with LPS (10U/ml) for 24h to induce COX2 protein synthesis. After renewal of medium (serum free), […]
before AA treatment. The activity of COX2 was determined by measuring PGE2 (Cayman) in the supernatants by EIA. Aspirin (10µM) and diclofenac (10µM) were used as control […]
NaF (250µg/ml) was used as a control (relative light unit, r.l.u). (c) Monocytes were treated […]
GPN136 (grey bars). The activity of COX1 was determined by measuring prostaglandin E2 (PGE2). […]
of COX2 was determined by measuring PGE2. […]

Each structure is given as a SMILES string.

T3 sequence (P35354 18-604): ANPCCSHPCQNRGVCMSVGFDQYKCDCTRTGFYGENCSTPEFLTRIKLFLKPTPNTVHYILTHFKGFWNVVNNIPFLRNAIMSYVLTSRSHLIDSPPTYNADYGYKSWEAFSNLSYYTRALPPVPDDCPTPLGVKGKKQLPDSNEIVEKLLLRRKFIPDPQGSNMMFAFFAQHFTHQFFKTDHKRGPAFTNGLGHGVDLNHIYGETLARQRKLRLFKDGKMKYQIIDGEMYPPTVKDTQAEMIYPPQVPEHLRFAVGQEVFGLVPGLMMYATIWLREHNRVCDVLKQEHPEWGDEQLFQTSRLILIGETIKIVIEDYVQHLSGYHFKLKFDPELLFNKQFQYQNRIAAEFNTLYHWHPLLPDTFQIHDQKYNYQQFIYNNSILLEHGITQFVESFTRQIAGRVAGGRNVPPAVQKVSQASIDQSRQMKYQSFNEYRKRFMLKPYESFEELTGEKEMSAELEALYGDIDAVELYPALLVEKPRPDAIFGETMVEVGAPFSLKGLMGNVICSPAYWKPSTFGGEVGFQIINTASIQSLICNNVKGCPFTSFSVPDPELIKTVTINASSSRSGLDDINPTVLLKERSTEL

In general, inhibition refers to the share of the control response that was lost under treatment. In general, IC50 refers to the concentration at which inhibition is half-maximal. As to `O=C(OCC(O)CO)c1ccccc1O` (stereo not drawn) [GPN136, 2,3-dihydroxypropyl 2-hydroxybenzoate], the inhibition at 10 µM at CCL22 worked out at 85.2%. On mouse CCL22, the IC50 was 8.1 ± 1.5 µM.

As for `CC(C)=CCn1cnc2c1c(=O)n(C)c(=O)n2C` [GPN279, 1,3-dimethyl-7-(3-methylbut-2-enyl)-1H-purine-2,6(3H, 7H)-dione], the “effect on COX2 activity (PGE2)” value on COX2 was “no effect”.

(Values after paper PMC4595804, “A strategy to discover decoy chemokine ligands with an anti-inflammatory activity” (Scientific Reports, 2015).)
